Measured values published in patent US5677282A (Proscript, Inc., priority 1995, dated 1997).

How the values were obtained:
stromelysin = stromelysin (Homo sapiens, UniProt P08254); test: Assay of stromelysin inhibition activity (fluorogenic coumarin peptide substrate); assay type: biochemical; details: trypsin-activated stromelysin 2 nM, H-150 buffer pH 7.4, room temperature; read-out: Ki(app)
Description: Stromelysin was first activated with trypsin. This was done by preparing a reaction mixture in H-150 (H-150 consists of 10 mM CaCl2, 150 mM NaCl and 100 mM HEPES at pH 7.4) containing a final concentration of 25 μg/mL trypsin and 2.2 μM of stromelysin (Marcy et al., Biochemistry,30:6476 (1991); Koklitis et al., Biochem. J., 376:217 (1991). The reaction was incubated for 30 minutes at 37° C. and then quenched by adding trypsin inhibitor agarose to the reaction mixture at a 20 fold excess with respect to trypsin.
The reaction mixture was centrifuged at 14,000 rpm (16,000 ×g) for 30 minutes using an Eppendorf Centrifuge 5415C. The supernant, which contains activated stromelysin, was concentrated with a Centricon 10 (5000 g, 1 hour). A sample was analyzed by Bradford total protein assay and 12% SDS polyacrylamide gel electrophoresis.
All steps of the stromelysin inhibition assay were performed at room temperature. Assay solutions were prepared for each inhibitor tested. Activated stromelysin was added to a stirred covelte to a final concentration of 2 nM in 2 mL of H-150 buffer. 4 μL 5 mM coumarin peptide substrate was dissolved in DMSO and the initial rate of hydrolysis was measured for 100-200 seconds.
Substrate hydrolysis was assessed by fluorescence using a slit width of 10:10, excitation at 328 nm and emission at 393 nm. Ki was calculated based on the assumption of simple competitive inhibition and a substrate concentration much less than Km. 2 μL of 10 mM inhibitor in DMSO was added and the reduction in hydrolysis rate measured. The addition of 2 μL of inhibitor was continued until a 30-70% inhibition was observed.

[1] = tested on: bovine cartilage explants; test: Bovine cartilage explant assay (35S-GAG release, rhIL-1α stimulated); assay type: cell-based; details: 25 μM compound, rhIL-1α 5 ng/mL, 3-4 days culture
Description: A tissue culture assay was used to measure the ability of the compounds of the present invention to slow the degradation of the extracellular matrix by metalloproteinases. This assay measured the amount of ^35 S-glycosaminoglycan (^35 S-GAG) released from labeled bovine cartilage explants.
Knee joints from a 1 to 3 week old calf were obtained immediately after sacrifice from the Abattoir and then transported on ice. The intact joints were washed well with tap water and soaked in 50% (v/v) Povidine iodine solution, obtained from Burre National, Inc., Baltimore, Md. All subsequent steps were performed in a laminar flow tissue culture hood using standard sterile technique. The joint was immobilized in a shank holder and the joint capsule was cut open to expose the articular cartilage. Cartilage explant plugs, approximately 15 mg wet weight, were removed from the flat articulating surfaces in the lower-most region of the knee joint using a sterile steel cork-borer and collected in a 250 mL roller bottle containing about 100 mL fresh Delbecco's minimum essential medium (DMEM), obtained from Gibco BRC, Life Technologies, Gaithersburg, Md., containing 4.5 g/l (D)-glucose and (L)-glutamine, without sodium pyruvate. The fresh media also contained enough Hepes buffer and sodium bicarbonate such that the pH was about 7.4. The media was then further supplemented just before use with 100 units Penicillin, 100 μg Streptomycin, and 50 μg (L)-ascorbic acid per mL of medium.
Once collected, the explant plugs were washed four times with 50 mL fresh DMEM. The plugs were then placed in the incubator for a minimum of 1 hour to equilibrate, before proceeding to make disks from the articulating surface of each plug. A 1 mm thick disk was sliced from individual plugs from the end that was the articulating surface of the joint. The plug was held steady in the sterile template (4 mm diameter×1.5 mm deep) using sterile forceps. A scalpel blade was used to carefully slice off the disk. Only the superficial articulating surface responded well in culture.
Individual disks obtained were transferred to a tissue culture flask containing about 100 mL fresh media. The flask containing the disks was placed in an incubator at 37° C. (with 5% CO2, 95% air) and allowed to equilibrate overnight and at least one additional day before labeling. When ready to label, the old media was replaced with 50 mL fresh media containing about 500 μCi ^35 S-Sodium Sulfate. The plugs were labeled in bulk for about 48 hours. The next morning, the "hot" media was removed and replaced with fresh "cold" media. The disks were again allowed to equilibrate overnight before being used for actual experiments.
The media in which the disks were stored was changed immediately prior to performing the assay. The disks were then returned to the incubator until the test media and the two control media had been prepared. The test media consisted of the desired concentration of a compound being tested for its ability to inhibit extracellular matrix degradation and concomitant recombinant human Interleukin rhIL-1α (5 ng/mL) in fresh DMEM solution. The control media were identical to the test media, except that the first control media lacked rhIL-1α and the second control media lacked the test compound. 250 μL of each of the test and control media were transferred to separate 96-well TC plates. Flamed forceps were used to transfer a disk from the incubator to each 96-well TC plates that had been filled with either the test media or one of the two control media.
The TC plates were then placed in the incubator and cultured for 3-4 days (initial incubation with rhIL-1α alpha takes at least 3 days to stimulate endogenous metalloproteinases). A 50 μL aliquot of media from each TC plate was saved and counted. The rest of the media was removed with a suction device.
The cartilage disks from each TC plate were also saved for counting. […]

[2] = target: human neutrophil collagenase (Homo sapiens, UniProt P22894); test: Assay of human neutrophil collagenase inhibition activity; assay type: biochemical; details: human neutrophil collagenase 2 nM, H-150 buffer pH 7.4; read-out: Ki(app)
Description: H-150 buffer, pH 7.4, was prepared by adding CaCl2 H2 O (1.47 grams), NaCl (8.77 grams) and N-[2-hydroxyethyl]piperazine-N'-[2-ethanesulfonic acid] (23.83 grams) to distilled and deionized water and then bringing the final volume of the solution to 1 liter.
A reaction mixture with a final volume of 2.0 mL was prepared from H-150 buffer, human neutrophil collagenase (Schnierer, et al., Blochem. Biophys. Res. Comm., 191:319 (1993); Knight et al., Federation of Europena Biochemical Societies 296:263 (1992)) (2 nM). Coumarin peptide substrate (4 μL of a 5 mM solution in dimethyl sulfoxide) was added to the reaction mixture. The rate of hydrolysis was determined for about 100-200 seconds by measuring the fluorescence of the reaction at ex328 nanometers and […] using a Hitachi F-2000 Fluorescence Spectrophotometer.
(§1) 2 μL of a 10 mM inhibitor stock solution (in dimethyl sulfoxide) is added and the reduction in the rate of hydrolysis is determined. Additional 2 μL aliquots of the stock inhibitor solution is added until a 30% to 70% inhibition is observed. Ki is calculated on the assumption of simple competitive inhibition and that the substrate concentration is much less than Km.

72 kD gelatinase = target: T1, 72 kD gelatinase (Homo sapiens, UniProt P08253); test: Assay of 72 KD gelatinase inhibition activity; assay type: biochemical; details: 72KD gelatinase 180 pM, H-150 buffer pH 7.4; read-out: Ki(app)
T1 sequence (P08253 110-660): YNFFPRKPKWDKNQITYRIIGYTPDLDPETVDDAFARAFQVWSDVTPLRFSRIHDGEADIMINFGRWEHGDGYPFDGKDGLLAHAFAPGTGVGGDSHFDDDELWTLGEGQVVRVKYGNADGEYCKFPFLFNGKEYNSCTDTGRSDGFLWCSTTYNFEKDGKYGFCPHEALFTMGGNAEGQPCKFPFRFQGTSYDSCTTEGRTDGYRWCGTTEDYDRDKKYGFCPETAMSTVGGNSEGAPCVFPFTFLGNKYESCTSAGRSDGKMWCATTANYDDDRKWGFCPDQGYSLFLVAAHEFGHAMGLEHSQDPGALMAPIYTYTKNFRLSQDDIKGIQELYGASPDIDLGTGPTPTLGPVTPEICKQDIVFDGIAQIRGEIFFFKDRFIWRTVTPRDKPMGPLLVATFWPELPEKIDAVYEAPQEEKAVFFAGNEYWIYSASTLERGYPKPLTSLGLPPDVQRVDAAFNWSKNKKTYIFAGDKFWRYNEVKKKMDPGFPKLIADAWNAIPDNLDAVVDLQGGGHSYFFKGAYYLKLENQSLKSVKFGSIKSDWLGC
Description: H-150 buffer, pH 7.4, was prepared by CaCl2 H2O (1.47 grams), NaCl (8.77 grams) and N-[2 -hydroxyethyl]piperazine-N'-[2-ethanesulfonic acid](23.83 grams) to distilled and deionized water and then bring the final volume of the solution to 1 liter. An reaction mixture having a final volume of 250 μL was prepared with H-150 buffer, 40 μgrams of Pro-72KD gelatinase (Strongin, et al., J. Biol. Chem. 268:14033 (1993); Goldberg, et al., J. Biol. Chem., 267:4583 (1992); Kleiner, et al., Biochemistry 32:1583 (1993)) and p-aminophenyl mercuric acetate (Sigma Chemical Co., St. Louis, Mo.) (1 mM). The reaction mixture was then incubated for 3 hours at 25° C.
The reaction mixture was applied to a NAP-5 column (G-25 SEPHADEX™, Pharmacia). Fractions containing […] were identified using 12% SDS polyacrylamide gel electrphoresis and concentrated to about 100-200 μliters by centrifigation (5000 g, 15 minutes).
(§2) A solution containing H-150 buffer (2.0 mL), 72KD gelatinase (180 pM) and ethylphenolpoly(ethylene-glycolether)n (Boerhringer Mannheim) (1.3 μM) was prepared in a stirred cuvette. Coumarin peptide substrate (2 μL of a 1 mM solution in dimethyl sulfoxide) was added to the reaction mixture. The rate of hydrolysis was determined for about 100-200 seconds by measuring the fluorescence of the reaction at ex328 nanometers and […] using a Hitachi F-2000 Fluorescence Spectrophotometer.
as §1

92 kD gelatinase = 92 kD gelatinase (Homo sapiens, UniProt P14780); test: Assay of 92 KD gelatinase inhibition activity; assay type: biochemical; details: 92KD gelatinase 25 pM, H-150 buffer pH 7.4; read-out: Ki(app)
Description: H-150 buffer, pH 7.4, was prepared by CaCl2 H2 O (1.47 grams), NaCl (8.77 grams) and N-[2-hydroxyethyl]piperazine-N'-[2-ethanesulfonic acid](23.83 grams) to distilled and deionized water and then bring the final volume of the solution to 1 liter. A reaction mixture having a final volume of 500 μL was prepared with H-150 buffer, 200 μgrams of Pro-92KD gelatinase (Strongin et al., J. Biol. Chem., 268:14033 (1993); Goldberg, et al., J. Biol. Chem., 267:4583 (1992); Okada et al., J. Biol. Chem. 267:21712 (1992)), p-aminophenyl mercuric acetate (Sigma Chemical Co., St. Louis, Mo.) (1 mM) and Brij (dodexylpoly(oxyethyleneglycolether))(0,008% w/v). The reaction mixture wsa then incubated for 24 hours at 37° C.
The reaction mixture was applied to a NAP-5 column (G-25 SEPHADEX™, Pharmacia). Fractions containing 72KD gelatinase were identified using 12% polyacrylamide gel electrophoresis and concentrated to about 100-200 μliters by centrifigation (5000 g, 1 hour).
as §2, with “mL), 92KD” for “mL), 72KD”, “gelatinase (25” for “gelatinase (180”, “Mannheim) (4.0” for “Mannheim) (1.3”, “substrate (4” for “substrate (2”, “a 5” for “a 1”
as §1

Sequence of stromelysin (P08254 100-477): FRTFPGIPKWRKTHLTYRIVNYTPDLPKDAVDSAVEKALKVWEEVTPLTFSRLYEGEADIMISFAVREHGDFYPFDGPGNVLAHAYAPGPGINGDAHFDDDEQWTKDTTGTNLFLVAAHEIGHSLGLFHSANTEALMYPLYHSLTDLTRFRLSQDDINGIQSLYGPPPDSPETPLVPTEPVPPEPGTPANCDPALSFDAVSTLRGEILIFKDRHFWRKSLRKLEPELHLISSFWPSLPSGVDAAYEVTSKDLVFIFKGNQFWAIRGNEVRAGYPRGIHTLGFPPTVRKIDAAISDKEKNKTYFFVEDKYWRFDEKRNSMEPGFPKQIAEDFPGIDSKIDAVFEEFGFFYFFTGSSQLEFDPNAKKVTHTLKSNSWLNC
Sequence of human neutrophil collagenase (P22894 101-467): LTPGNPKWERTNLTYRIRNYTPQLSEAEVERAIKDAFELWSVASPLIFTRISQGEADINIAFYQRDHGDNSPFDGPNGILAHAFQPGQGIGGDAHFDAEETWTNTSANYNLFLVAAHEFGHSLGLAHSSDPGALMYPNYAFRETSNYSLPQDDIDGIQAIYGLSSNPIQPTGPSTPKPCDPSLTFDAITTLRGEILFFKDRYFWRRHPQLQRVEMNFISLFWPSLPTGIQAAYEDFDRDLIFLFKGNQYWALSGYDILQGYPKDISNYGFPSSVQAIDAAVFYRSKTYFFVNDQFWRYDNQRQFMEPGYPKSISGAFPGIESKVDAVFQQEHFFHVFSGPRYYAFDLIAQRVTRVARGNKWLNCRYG
Sequence of 92 kD gelatinase (P14780 107-707): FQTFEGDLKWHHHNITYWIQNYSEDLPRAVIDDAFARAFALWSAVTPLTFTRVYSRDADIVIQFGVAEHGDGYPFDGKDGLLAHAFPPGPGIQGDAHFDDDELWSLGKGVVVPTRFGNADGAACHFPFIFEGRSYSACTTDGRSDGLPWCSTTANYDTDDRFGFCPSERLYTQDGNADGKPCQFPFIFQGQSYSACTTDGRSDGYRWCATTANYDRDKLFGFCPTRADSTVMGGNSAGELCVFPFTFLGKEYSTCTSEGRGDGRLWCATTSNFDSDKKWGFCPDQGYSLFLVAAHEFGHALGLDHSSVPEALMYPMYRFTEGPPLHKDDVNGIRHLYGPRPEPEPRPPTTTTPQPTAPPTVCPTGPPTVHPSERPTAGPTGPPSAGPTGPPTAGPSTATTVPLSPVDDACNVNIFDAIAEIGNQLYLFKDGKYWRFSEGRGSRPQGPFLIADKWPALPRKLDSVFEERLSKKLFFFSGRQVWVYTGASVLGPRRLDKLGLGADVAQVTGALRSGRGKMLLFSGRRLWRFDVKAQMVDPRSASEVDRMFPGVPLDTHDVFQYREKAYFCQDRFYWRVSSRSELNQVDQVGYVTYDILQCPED

Row | Ki (stromelysin) | Ki [2] | Ki (72 kD gelatinase) | Ki (92 kD gelatinase) | SMILES | % inhibition (concentration [μM]) of cartilage degradation [1] | inhibition at 25 µM ([1]; Bos taurus, read-out: % inhibition (concentration [μM]) of cartilage degradation)
1 | 135 nM | – | – | – | CC(C)[C@H](NC(=O)[C@H](Cc1ccccc1)NC(=O)Cc1ccc(-c2ccccc2)cc1)C(=O)Nc1n[nH]c(=S)s1 [5-(N-(4-phenyl)phenylacetyl-phenylalanyl-valylamino)-1,3,4-thiadiazole-2-thione] | 37% | –
2 | 62 nM | 1.17 nM | 0.29 nM | 0.145 nM | CC(C)C(NC(=O)C(Cc1ccc(NC(=O)OCc2ccccc2)cc1)NC(=O)OCc1ccccc1)C(=O)Nc1n[nH]c(=S)s1 (centres unmarked) [5-(N-benzyloxycarbonyl-((p-benzyloxycarbonylamino)phenyl-alanyl)-valylamino)-1,3,4-thiadiazole-2-thione] | – | –
3 | 57 nM | 0.54 nM | 0.52 nM | 0.17 nM | O=C(CCC(NC(=O)OCc1ccccc1)C(=O)NC(C(=O)Nc1n[nH]c(=S)s1)c1ccccc1)NCCc1ccccc1 (centres unmarked) [5-(N-benzyloxycarbonyl-(γ-N-2-phenylethyl)glutamylphenylglycylamino)-1,3,4-thiadiazole-2-thione] | – | –
4 | – | – | – | – | O=C(N[C@H](CCc1ccccc1)C(=O)Nc1n[nH]c(=S)s1)OCc1ccccc1 [5-(N-benzyloxycarbonyl-D-homophenylalanylamino)-1,3,4-thiadiazole-2-thione] | – | 22%
5 | 1120 nM | 7.8 nM | 1.7 nM | 3.6 nM | CSCC[C@H](NC(=O)[C@H](Cc1ccccc1)NC(=O)OCc1ccccc1)C(=O)Nc1n[nH]c(=S)s1 [5-(N-benzyloxycarbonyl-phenylalanyl-methionylamino)-1,3,4-thiadiazole-2-thione] | – | –
6 | 60 nM | 2.4 nM | 0.71 nM | 0.36 nM | CC(C)[C@H](NC(=O)[C@H](Cc1c[nH]c2ccccc12)NC(=O)[C@H](Cc1ccccc1)NC(=O)OCc1ccccc1)C(=O)Nc1n[nH]c(=S)s1 [5-(N-benzyloxycarbonyl-phenylalanyl-tryptonyl-valylamino)-1,3,4-thiadiazole-2-thione] | – | –

Row | SMILES | Ki (stromelysin) | Ki [2] | Ki (72 kD gelatinase) | Ki (92 kD gelatinase) | % inhibition (concentration [μM]) of cartilage degradation [1] | inhibition at 25 µM ([1]; Bos taurus, read-out: % inhibition (concentration [μM]) of cartilage degradation)
7 | CC(C)[C@H](NC(=O)[C@H](CSCc1ccccc1)NC(=O)OCc1ccccc1)C(=O)Nc1n[nH]c(=S)s1 [5-(N-benzyloxycarbonyl-((S-benzyl)cysteinyl)-valylamino)-1,3,4-thiadiazole-2-thione] | 202 nM | 3.2 nM | 1.1 nM | 2.1 nM | – | –
